# Data taken from ChEMBL document CHEMBL3885881, “DrugMatrix”.
# Organism: Rattus norvegicus
# Experiment: DrugMatrix - Regimen: Daily Repeat
# Assay type: toxicity, organism-based, Sprague-Dawley
# Set-up: regimen Daily Repeat, gender Male, age 6-8 weeks
# Details: in vivo, po, route oral GAVAGE, vehicle .5 % CMC; for ABSOLUTE BASOPHIL / ABSOLUTE EOSINOPHIL / ABSOLUTE LYMPHOCYTE / ABSOLUTE MONOCYTE / ABSOLUTE SEGMENTED NEUTROPHIL / BASOPHIL / EOSINOPHIL / ERYTHROCYTE COUNT / HEMATOCRIT / HEMOGLOBIN / LEUKOCYTE COUNT / LYMPHOCYTE / MEAN CORPUSCULAR HEMOGLOBIN / MEAN CORPUSCULAR HEMOGLOBIN CONCENTRATION / MEAN CORPUSCULAR VOLUME / MONOCYTE / NEUTROPHIL / NUCLEATED RED BLOOD CELLS / PLATELET COUNT: tissue Blood; for ALANINE AMINOTRANSFERASE / ALBUMIN / ALKALINE PHOSPHATASE / ASPARTATE AMINOTRANSFERASE / BLOOD UREA NITROGEN / CARBON DIOXIDE / CHLORIDE / CHOLESTEROL / CREATINE PHOSPHOKINASE / CREATININE / GLUCOSE / LACTATE DEHYDROGENASE / LIPASE / PHOSPHORUS / POTASSIUM / SODIUM / TOTAL BILIRUBIN / TOTAL PROTEIN / URIC ACID: tissue Plasma
# [1] = 0 mg/kg, 72 h, dose level Control, time 3 day
# [2] = 0 mg/kg, 120 h, dose level Control, time 5 day
# [3] = 100 mg/kg, 72 h, dose level Low, time 3 day
structure (smiles),measurement,setting,value
CO[C@H]1/C=C/O[C@@]2(C)Oc3c(C)c(O)c4c(c3C2=O)C2=NC3(CCN(CC(C)C)CC3)NC2=C(NC(=O)/C(C)=C\C=C\[C@H](C)[C@H](O)[C@@H](C)[C@@H](O)[C@@H](C)[C@H](OC(C)=O)[C@@H]1C)C4=O [RIFABUTIN],ABSOLUTE BASOPHIL,[1],0 CELLS/uL
same,ABSOLUTE EOSINOPHIL,[1],0 CELLS/uL
same,ABSOLUTE LYMPHOCYTE,[1],12269.67 CELLS/uL
same,ABSOLUTE MONOCYTE,[1],160.33 CELLS/uL
same,ABSOLUTE SEGMENTED NEUTROPHIL,[1],970 CELLS/uL
same,BASOPHIL,[1],0%
same,EOSINOPHIL,[1],0%
same,ERYTHROCYTE COUNT,[1],5.76 x10E6/uL
same,HEMATOCRIT,[1],36.57%
same,HEMOGLOBIN,[1],14.22 G/DL
same,LEUKOCYTE COUNT,[1],13.4 x10E3/uL
same,LYMPHOCYTE,[1],91.67%
same,MEAN CORPUSCULAR HEMOGLOBIN,[1],24.67 pg
same,MEAN CORPUSCULAR HEMOGLOBIN CONCENTRATION,[1],38.85 G/DL
same,MEAN CORPUSCULAR VOLUME,[1],63.52 fL
same,MONOCYTE,[1],1.17%
same,NEUTROPHIL,[1],7.17%
same,NUCLEATED RED BLOOD CELLS,[1],0.33 /100WBC
same,PLATELET COUNT,[1],1250.83 x10E3/uL
same,ALANINE AMINOTRANSFERASE,[1],49.17 u/L
same,ALBUMIN,[1],4.33 G/DL
same,ALKALINE PHOSPHATASE,[1],378.5 u/L
same,ASPARTATE AMINOTRANSFERASE,[1],82.17 u/L
same,BLOOD UREA NITROGEN,[1],15 mg/dL
same,CARBON DIOXIDE,[1],34.33 mmol/L
same,CHLORIDE,[1],99.17 MEQ/L
same,CHOLESTEROL,[1],71.17 mg/dL
same,CREATINE PHOSPHOKINASE,[1],258.67 u/L
same,CREATININE,[1],0.18 mg/dL
same,GLUCOSE,[1],142.67 mg/dL
same,LACTATE DEHYDROGENASE,[1],154.33 u/L
same,LIPASE,[1],9 u/L
same,PHOSPHORUS,[1],11.67 mg/dL
same,POTASSIUM,[1],7.13 MEQ/L
same,SODIUM,[1],142.22 MEQ/L
same,TOTAL BILIRUBIN,[1],0.18 mg/dL
same,TOTAL PROTEIN,[1],5.77 G/DL
same,URIC ACID,[1],1.55 mg/dL
same,ABSOLUTE BASOPHIL,[2],0 CELLS/uL
same,ABSOLUTE EOSINOPHIL,[2],23.33 CELLS/uL
same,ABSOLUTE LYMPHOCYTE,[2],14943.67 CELLS/uL
same,ABSOLUTE MONOCYTE,[2],32 CELLS/uL
same,ABSOLUTE SEGMENTED NEUTROPHIL,[2],1084.33 CELLS/uL
same,BASOPHIL,[2],0%
same,EOSINOPHIL,[2],0.17%
same,ERYTHROCYTE COUNT,[2],5.71 x10E6/uL
same,HEMATOCRIT,[2],35.28%
same,HEMOGLOBIN,[2],14.27 G/DL
same,LEUKOCYTE COUNT,[2],16.08 x10E3/uL
same,LYMPHOCYTE,[2],93%
same,MEAN CORPUSCULAR HEMOGLOBIN,[2],25.02 pg
same,MEAN CORPUSCULAR HEMOGLOBIN CONCENTRATION,[2],40.43 G/DL
same,MEAN CORPUSCULAR VOLUME,[2],61.82 fL
same,MONOCYTE,[2],0.17%
same,NEUTROPHIL,[2],6.67%
same,NUCLEATED RED BLOOD CELLS,[2],0.33 /100WBC
same,PLATELET COUNT,[2],1274 x10E3/uL
same,ALANINE AMINOTRANSFERASE,[2],54.17 u/L
same,ALBUMIN,[2],4.22 G/DL
same,ALKALINE PHOSPHATASE,[2],373.17 u/L
same,ASPARTATE AMINOTRANSFERASE,[2],81.83 u/L
same,BLOOD UREA NITROGEN,[2],16.67 mg/dL
same,CARBON DIOXIDE,[2],30.33 mmol/L
same,CHLORIDE,[2],99 MEQ/L
same,CHOLESTEROL,[2],71 mg/dL
same,CREATINE PHOSPHOKINASE,[2],273.5 u/L
same,CREATININE,[2],0.22 mg/dL
same,GLUCOSE,[2],141.83 mg/dL
same,LACTATE DEHYDROGENASE,[2],153.67 u/L
same,LIPASE,[2],10.33 u/L
same,PHOSPHORUS,[2],11.38 mg/dL
same,POTASSIUM,[2],7.08 MEQ/L
same,SODIUM,[2],142.75 MEQ/L
same,TOTAL BILIRUBIN,[2],0.18 mg/dL
same,TOTAL PROTEIN,[2],6.1 G/DL
same,URIC ACID,[2],1.67 mg/dL
same,ABSOLUTE BASOPHIL,[3],0 CELLS/uL
same,ABSOLUTE EOSINOPHIL,[3],245.33 CELLS/uL
same,ABSOLUTE LYMPHOCYTE,[3],18853.33 CELLS/uL
same,ABSOLUTE MONOCYTE,[3],248 CELLS/uL
same,ABSOLUTE SEGMENTED NEUTROPHIL,[3],1720 CELLS/uL
same,BASOPHIL,[3],0%
same,EOSINOPHIL,[3],1%
same,ERYTHROCYTE COUNT,[3],5.43 x10E6/uL
same,HEMATOCRIT,[3],36.1%
same,HEMOGLOBIN,[3],14.33 G/DL
same,LEUKOCYTE COUNT,[3],21.07 x10E3/uL
same,LYMPHOCYTE,[3],89.33%
same,MEAN CORPUSCULAR HEMOGLOBIN,[3],26.5 pg
same,MEAN CORPUSCULAR HEMOGLOBIN CONCENTRATION,[3],39.7 G/DL
same,MEAN CORPUSCULAR VOLUME,[3],66.67 fL
same,MONOCYTE,[3],1.33%
same,NEUTROPHIL,[3],8.33%
same,NUCLEATED RED BLOOD CELLS,[3],0.67 /100WBC
same,PLATELET COUNT,[3],1207.33 x10E3/uL
same,ALANINE AMINOTRANSFERASE,[3],65.67 u/L
same,ALBUMIN,[3],4.37 G/DL
same,ALKALINE PHOSPHATASE,[3],375 u/L
same,ASPARTATE AMINOTRANSFERASE,[3],96.33 u/L
same,BLOOD UREA NITROGEN,[3],13 mg/dL
same,CARBON DIOXIDE,[3],25.67 mmol/L
same,CHLORIDE,[3],103 MEQ/L
same,CHOLESTEROL,[3],84.33 mg/dL
same,CREATINE PHOSPHOKINASE,[3],380 u/L
same,CREATININE,[3],0.35 mg/dL
same,GLUCOSE,[3],158 mg/dL
same,LACTATE DEHYDROGENASE,[3],212.67 u/L
same,LIPASE,[3],10.67 u/L
same,PHOSPHORUS,[3],12.8 mg/dL
same,POTASSIUM,[3],6.31 MEQ/L
same,SODIUM,[3],145.97 MEQ/L
same,TOTAL BILIRUBIN,[3],0.23 mg/dL
same,TOTAL PROTEIN,[3],6.1 G/DL
same,URIC ACID,[3],1.97 mg/dL
